In patent publication US20030186891A1, “Compositions and methods for treatment of vitamin D deficiency” (priority 2002, published 2003):

Tests used:
1α-hydroxylase mRNA = 1α-hydroxylase mRNA expression in CL-8 cells (real-time quantitative PCR); assay type: cell-based, human
Description: Cell culture, RNA preparation and cDNA synthesis: CL-8 cells (1.6×10^6 cells) were placed in 60 mm culture dish, and cultured for 48 hours in 5% FCS D-MEM/HamF-12(1:1) medium. This medium was exchanged to FCS free, 0.5 mM Ca defined medium [D-MEM/HamF-12 (13:87), Insulin 5 μg/ml, Transferrin 5 μg/ml, Na2SeO3 5 ng/ml, T3 0.37 nM, EGF 2.5 ng/ml, Hydrocortisone 1 nM]. After 24 hours, the peptide of SEQ ID NO.1 (100 ng/ml or 500 ng/ml) or PTH 100 nM were added and cultured for 5 hours. After treatment, the total cellular contents of each well were used for RNA extraction and reverse transcription (RT). RNA was isolated using ISOGEN (Nippon Gene, Japan) according to the manufacturer's protocol. The purified RNA was redissolved in 10 μl RNase-free water and used for cDNA synthesis by RT. The RT was performed in a 20 μl reaction mixture containing 10 mM Tris buffer, pH8.3, 50 mM KCl, 5 mM MgCl2, 1 mM each of dATP, dGTP, dCTP and dTTP, 20 U of RNase inhibitor, 1 μM Reverse primer and 5 U of AMV reverse transcriptase. The reaction mixture was incubated at 30° C. for 10 min, 55° C. for 15 min, 95° C. for 5 min followed by 5° C. for 5 min.
Real-time quantitative PCR: mRNA was quantitated for human 1α-OHase gene and β-actin. Theses gene were amplified using primers of oligo synthesis DNA (Takara, Japan). […] Quantitation of mRNA was performed using Applied Biosystems GeneAmp 5700 sequence detection system with SYBR Green methods.
In order to study the effect of the peptide of SEQ ID No. 1 on the regulation of 1α-hydoxylase mRNA expression, CL-8 cells were grown with and without the peptide of SEQ ID No. 1 and the effects of the peptide on 1α-hydroxylase were quantified. […]
PTH and the peptide of SEQ ID NO.1 induce the expression of 1α-hydroxylase mRNA. […] Cells were grown for a further 5 hours, and RNA was harvested and expression levels of 1α-hydroxylase were determined in each sample using standard Northern blotting or RT-PCR procedures.

24-hydroxylase mRNA = 24-hydroxylase mRNA expression in CL-8 cells; assay type: cell-based; settings: 1α,25-dihydroxyvitamin D3 10^−9 M, 5 hours (FIG. 4)
Description: CL-8 cells were grown as above and the peptide of SEQ ID NO.1 was either not added to the cells, or added to the cells at a concentration of either 100 or 500 ng/ml. Cells were grown for a further 5 hours, and RNA was harvested using methods described above and expression levels of 24-hydroxylase were determined in each sample using methods described above. […]

For `O=S(=O)(NCCNC/C=C/c1ccc(Br)cc1)c1cccc2cnccc12` [H-89], the “effect of H-89 on the inducing effects of PTH on 1α-hydroxylase mRNA expression” value (1α-hydroxylase mRNA; H-89 10 uM with PTH 100 nmol, 5 hours (FIG. 2)) was “inhibited” and the “effect of H-89 on the stimulatory effects of the peptide of SEQ ID NO.1 on 1α-hydroxylase mRNA expression” value (1α-hydroxylase mRNA; H-89 10 uM with peptide 100 or 500 ng/ml, 5 hours) was “did not inhibit”.

In the case of `C=C1/C(=C\C=C2/CCC[C@]3(C)[C@@H]([C@H](C)CCCC(C)(C)O)CC[C@@H]23)C[C@@H](O)C[C@@H]1O` [1α,25-dihydroxyvitamin D3], the “levels of 24-hydroxylase mRNA” value (24-hydroxylase mRNA) is reported as “significant increase”.

B1: parathyroid hormone (peptide, UniProt P01270 32-115, looked up)
Parathyroid hormone: SVSEIQLMHNLGKHLNSMERVEWLRKKLQDVHNFVALGAPLAPRDAGSQRPRKKEDNVLVESHEKSLGEADKADVNVLTKAKSQ
modifications: Parathyroid hormone
notes: parathyroid hormone, comparator inducer of 1α-hydroxylase mRNA acting via a PKA-dependent pathway
With B1 the “induction of the expression of 1α-hydroxylase mRNA” value (1α-hydroxylase mRNA) was “induce”.
